# How the values were obtained:
# GSK-3β (AA 1-420) = target: T1, GSK-3β (AA 1-420) (Homo sapiens, UniProt P49841); experiment: Ki determination for the inhibition of GSK-3 (coupled enzyme system); assay type: biochemical; conditions: 20 μM ATP, 300 μM peptide, 20 nM GSK-3β, 30° C.
# T1 construct: GSK-3β (AA 1-420)
# Method: Compounds were screened for their ability to inhibit GSK-3β (AA 1-420) activity using a standard coupled enzyme system (Fox et al. (1998) Protein Sci. 7, 2249). Reactions were carried out in a solution containing 100 mM HEPES (pH 7.5), 10 mM MgCl2, 25 mM NaCl, 300 μM NADH, 1 mM DTT and 1.5% DMSO. Final substrate concentrations in the assay were 20 μM ATP (Sigma Chemicals, St Louis, Mo.) and 300 μM peptide (HSSPHQS(PO3H2)EDEEE, American Peptide, Sunnyvale, Calif.). Reactions were carried out at 30° C. and 20 nM GSK-3β. Final concentrations of the components of the coupled enzyme system were 2.5 mM phosphoenolpyruvate, 300 μM NADH, 30 μg/ml pyruvate kinase and 10 μg/ml lactate dehydrogenase.
# An assay stock buffer solution was prepared containing all of the reagents listed above with the exception of ATP and the test compound of interest. The assay stock buffer solution (175 μl) was incubated in a 96 well plate with 5 μl of the test compound of interest at final concentrations spanning 0.002 μM to 30 μM at 30° C. for 10 min. Typically, a 12 point titration was conducted by preparing serial dilutions (from 10 mM compound stocks) with DMSO of the test compounds in daughter plates. […] Rates of reaction were obtained using a Molecular Devices Spectramax plate reader (Sunnyvale, Calif.) over 10 min at 30° C. The Ki values were determined from the rate data as a function of inhibitor concentration.
# Aurora-2 = target: T2, Aurora-2 (Homo sapiens, UniProt O14965); experiment: Ki determination for the inhibition of Aurora-2 (coupled enzyme assay); assay type: biochemical; conditions: 70 nM Aurora-2, 30° C.
# T2 sequence (O14965 1-403): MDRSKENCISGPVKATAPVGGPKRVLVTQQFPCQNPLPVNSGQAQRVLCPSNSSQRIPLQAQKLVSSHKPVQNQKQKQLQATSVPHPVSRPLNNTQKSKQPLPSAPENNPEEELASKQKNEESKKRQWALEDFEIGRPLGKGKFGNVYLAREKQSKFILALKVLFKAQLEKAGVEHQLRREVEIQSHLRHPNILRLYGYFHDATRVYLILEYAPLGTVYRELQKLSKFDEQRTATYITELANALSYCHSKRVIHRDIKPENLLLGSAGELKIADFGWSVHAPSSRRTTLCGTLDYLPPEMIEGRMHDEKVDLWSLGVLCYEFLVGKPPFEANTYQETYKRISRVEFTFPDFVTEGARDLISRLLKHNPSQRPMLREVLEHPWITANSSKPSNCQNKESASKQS
# Method: Compounds were screened in the following manner for their ability to inhibit Aurora-2 using a standard coupled enzyme assay (Fox et al (1998) Protein Sci 7, 2249).
# To an assay stock buffer solution containing 0.1M HEPES 7.5, 10 mM MgCl2, 1 mM DTT, 25 mM NaCl, 2.5 mM phosphoenolpyruvate, […], 30 mg/ml pyruvate kinase, 10 mg/ml lactate dehydrogenase, […], and 800 μM peptide (LRRASLG, American Peptide, Sunnyvale, Calif.) was added a DMSO solution of a compound of the present invention to a final concentration of 30 μM. The resulting mixture was incubated at 30° C. for 10 min. The reaction was initiated by the addition of 10 μL of Aurora-2 stock solution to give a final concentration of 70 nM in the assay. The rates of reaction were obtained by monitoring absorbance at 340 nm over a 5 minute read time at 30° C. using a BioRad Ultramark plate reader (Hercules, Calif.). The Ki values were determined from the rate data as a function of inhibitor concentration.
# T1 sequence (P49841 whole entry, the tested form may be a part): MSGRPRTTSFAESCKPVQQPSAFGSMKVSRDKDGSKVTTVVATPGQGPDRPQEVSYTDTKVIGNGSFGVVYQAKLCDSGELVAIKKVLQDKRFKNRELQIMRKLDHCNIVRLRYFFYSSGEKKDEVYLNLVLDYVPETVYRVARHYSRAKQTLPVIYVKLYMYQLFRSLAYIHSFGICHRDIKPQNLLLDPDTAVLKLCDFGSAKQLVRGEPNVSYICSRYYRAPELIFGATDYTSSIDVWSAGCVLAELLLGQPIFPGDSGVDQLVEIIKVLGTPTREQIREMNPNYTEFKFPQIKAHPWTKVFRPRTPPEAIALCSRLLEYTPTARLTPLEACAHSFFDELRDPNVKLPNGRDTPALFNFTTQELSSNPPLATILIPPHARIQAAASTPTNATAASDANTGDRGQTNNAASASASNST
SMILES,Ki (GSK-3β (AA 1-420)) [nM],melting point [°C],Ki (Aurora-2) [nM]
COC(=O)c1cc(Nc2ccnc(N3CCCCC3)n2)n[nH]1 [IV-8],100 to 1000,,
"Cc1cc(Nc2nc(N3CCC(C)CC3)nc3nc[nH]c23)n[nH]1 [IV-33, [2-(4-Methylpiperidin-1-yl)-purin-4-yl]-(S-methyl-2H-pyrazol-3-yl)-amine]",100 to 1000,> 300,100 to 1000

# From patent US6613776B2, “Pyrazole compounds useful as protein kinase inhibitors” (Vertex Pharmaceuticals Incorporated, priority 2000, dated 2003)
